Test results as given in article PMC9016773 (Journal of chemical information and modeling, 2022).
“Also recorded” adds a separate entry of the source.

What was measured:
[1] = tested on: SARS-CoV-2 pseudotyped particles; format: cell-based; conditions: read-out: IC50, anti-pseudotyped particle activity
[2] = tested on: cortex actin filaments in U2OS cells; format: cell-based
SARS-CoV-2 = conditions: among drugs of the repurposing screen; cited from earlier work
[3] = tested on: actin filaments underlying the plasma membrane (cortex actin); conditions: inhibits HSPG-mediated endocytosis; cited from earlier work
[4] = tested on: HSPG-mediated endocytosis of α-Synuclein fibrils in HEK293T cells; experiment: α-Synuclein fibrils uptake assay; format: cell-based; conditions: among the top 10 inhibitors

| SMILES | Disruption of actin filaments underlying the plasma membrane (cortex actin) [3] | Inhibition of the entry of pHrodo-labeled α-Synuclein fibrils (ranking in words) [4] | other results |
| --- | --- | --- | --- |
| CC(C)S(=O)(=O)c1oc(-c2ccc(F)cc2)nc1S(=O)(=O)c1ccccc1 [NCGC00115755-02] | – | – | IC50 [1]: 5 µM; Effect on actin filaments (phalloidin-Alexa488 staining) [2]: dose-dependent disruption of cortex actin filaments; also recorded: causes the disassembly of actin stress fiber and generates large actin aggregates |
| O=C1c2c(O)ccc(O)c2C(=O)c2c(NCCNCCO)ccc(NCCNCCO)c21 [mitoxantrone] | – | – | Antiviral activity in vitro (in words) (SARS-CoV-2): most potent antiviral activity in vitro |
| CCN(CC)CCNC(=O)c1c(C)[nH]c(/C=C2\C(=O)Nc3ccc(F)cc32)c1C [Sunitinib] | effectively disrupt the actin filaments | – | – |
| O=C1/C(=C/c2ccccc2)C[C@@]2(O)[C@H]3Cc4ccc(O)c5c4[C@@]2(CCN3CC2CC2)[C@H]1O5 [BNTX] | effectively disrupt the actin filaments | – | – |
| CN(C)CCNC(=O)c1nc(-c2ccc(N3CCN(C)CC3)cc2)cc2c1ccn2C [NCGC00411718] | – | highest inhibition | – |
| O=C(Oc1cccc2cccnc12)c1ccccc1 [NCGC00159478] | – | highest inhibition | – |
